Experimental data reported in USRE48711E1, “Apoptosis signal-regulating kinase inhibitors” (Gilead Sciences, Inc., priority 2009, dated 2021).

Biological target: ASK1 (Apoptosis Signal-Regulating Kinase 1) (Homo sapiens (Human), UniProt Q99683)
Assay: ASK1 (Apoptosis Signal-Regulating Kinase 1) TR-FRET Kinase Assay (Biochemical IC50)
Details: TR-FRET, biotin-MBP substrate, 20 min pre-incubation, ATP added as 300 μM solution

ASK1 (Apoptosis Signal-Regulating Kinase 1), sequence (Q99683 649-946): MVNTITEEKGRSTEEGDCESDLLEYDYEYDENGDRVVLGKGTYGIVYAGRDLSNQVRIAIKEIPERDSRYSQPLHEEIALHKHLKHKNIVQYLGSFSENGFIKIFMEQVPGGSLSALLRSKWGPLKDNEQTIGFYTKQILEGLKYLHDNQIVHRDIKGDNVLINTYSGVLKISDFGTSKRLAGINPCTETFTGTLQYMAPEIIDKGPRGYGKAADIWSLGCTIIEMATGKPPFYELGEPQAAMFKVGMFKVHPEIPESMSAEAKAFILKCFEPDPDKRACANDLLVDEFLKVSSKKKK

| SMILES | IC50 |
| --- | --- |
| N#Cc1cncc(-c2ccnc(C(=O)Nc3cccc(-c4nncn4C4CC4)c3)c2)c1 [Example 65, 5-cyano-N-(3-(4-cyclopropyl-4H-1,2,4-triazol-3-yl)phenyl)-3,4′-bipyridine-2′-carboxamide] | 0.03 µM |
| Nc1ncccc1-c1ccnc(C(=O)Nc2cccc(-c3nncn3C3CC3)c2)c1 [Example 66, 2-amino-N-(3-(4-cyclopropyl-4H-1,2,4-triazol-3-yl)phenyl)-3,4′-bipyridine-2′-carboxamide] | 0.086 µM |
| COc1ncccc1-c1ccnc(C(=O)Nc2cccc(-c3nncn3C3CC3)c2)c1 [Example 67, N-(3-(4-cyclopropyl-4H-1,2,4-triazol-3-yl)phenyl)-2-methoxy-3,4′-bipyridine-2′-carboxamide] | 0.06 µM |
| Cn1cc(-c2ccnc(C(=O)Nc3cccc(-c4nncn4C4CC4)c3)c2)cn1 [Example 68, N-(3-(4-cyclopropyl-4H-1,2,4-triazol-3-yl)phenyl)-4-(1-methyl-1H-pyrazol-4-yl)picolinamide] | 0.039 µM |
| O=C(Nc1cccc(-c2nncn2C2CC2)c1)c1cc(-c2ccc(-c3ccc(Cl)nc3)nc2)ccn1 [Example 70, 6-Chloro-[3,2′:5′,4′]terpyridine-2″-carboxylic acid [3-(4-cyclopropyl-4H-[1,2,4]triazol-3-yl)-phenyl]-amide] | 0.106 µM |
| O=C(Nc1cccc(-c2cncn2C2CC2)c1)c1cc(-c2cccnc2)ccn1 [Example 72, N-(3-(1-cyclopropyl-1H-imidazol-5-yl)phenyl)-3,4′-bipyridine-2′-carboxamide] | 0.036 µM |
| Cc1ncccc1-c1ccnc(C(=O)Nc2cccc(-c3nncn3C3CC3)c2)c1 [Example 74, N-(3-(4-cyclopropyl-4H-1,2,4-triazol-3-yl)phenyl)-2-methyl-3,4′-bipyridine-2′-carboxamide] | 0.079 µM |
| O=C(Nc1cccc(-c2nncn2C2CC2)c1)c1cc(-c2cncc(Cl)c2)ccn1 [Example 76, 5-chloro-N-(3-(4-cyclopropyl-4H-1,2,4-triazol-3-yl)phenyl)-3,4′-bipyridine-2′-carboxamide] | 0.034 µM |
| CS(=O)(=O)c1cccc(-c2ccnc(C(=O)Nc3cccc(-c4nncn4C4CC4)c3)c2)c1 [Example 77, N-(3-(4-cyclopropyl-4H-1,2,4-triazol-3-yl)phenyl)-4-(3-(methylsulfonyl)phenyl)picolinamide] | 0.079 µM |
| CS(=O)(=O)c1ccccc1-c1ccnc(C(=O)Nc2cccc(-c3nncn3C3CC3)c2)c1 [Example 78, N-(3-(4-cyclopropyl-4H-1,2,4-triazol-3-yl)phenyl)-4-(2-(methylsulfonyl)phenyl)picolinamide] | 0.572 µM |
| O=C(Nc1cccc(-c2nncn2C2CC2)c1)c1cc(-c2cccnc2)c2ccccc2n1 [Example 80, N-(3-(4-cyclopropyl-4H-1,2,4-triazol-3-yl)phenyl)-4-(pyridin-3-yl)quinoline-2-carboxamide] | 0.036 µM |
| O=C(Nc1cccc(-c2nncn2C2CC2)c1)c1cc(-n2cnc3cnccc32)ccn1 [Example 83, N-(3-(4-cyclopropyl-4H-1,2,4-triazol-3-yl)phenyl)-4-(1H-imidazo[4,5-c]pyridin-1-yl)picolinamide] | 0.053 µM |
| O=C(Nc1cccc(-c2nncn2C2CC2)c1)c1cc(-n2nnc3ccccc32)ccn1 [Example 85, 4-(1H-benzo[d][1,2,3]triazol-1-yl)-N-(3-(4-cyclopropyl-4H-1,2,4-triazol-3-yl)phenyl)picolinamide] | 0.141 µM |
| O=C(Nc1cccc(-c2nncn2C2CC2)c1)c1cc(-c2cnccn2)ccn1 [Example 87, N-(3-(4-cyclopropyl-4H-1,2,4-triazol-3-yl)phenyl)-4-(pyrazin-2-yl)picolinamide] | 0.069 µM |
| O=C(Nc1cccc(-c2cncn2C2CC2)c1)c1cc(-n2cnc3ccccc32)ccn1 [Example 88, 4-(1H-benzo[d]imidazol-1-yl)-N-(3-(1-cyclopropyl-1H-imidazol-5-yl)phenyl)picolinamide] | 0.035 µM |
| O=C(Nc1cccc(-c2nncn2C2CC2)c1)c1cc(-c2cncc3ccccc23)ccn1 [Example 89, N-(3-(4-cyclopropyl-4H-1,2,4-triazol-3-yl)phenyl)-4-(isoquinolin-4-yl)picolinamide] | 0.026 µM |
| Cc1c(-c2ccnc(C(=O)Nc3cccc(-c4nncn4C4CC4)c3)c2)cnn1C [Example 90, N-(3-(4-cyclopropyl-4H-1,2,4-triazol-3-yl)phenyl)-4-(1,5-dimethyl-1H-pyrazol-4-yl)picolinamide] | 0.038 µM |

The next compounds have a lower IC50 than those just listed; values first:

| IC50 | SMILES |
| --- | --- |
| 0.02 µM | O=C(Nc1cccc(-c2nncn2C2CC2)c1)c1cc(-n2cnc3cccnc32)ccn1 [Example 82, N-(3-(4-cyclopropyl-4H-1,2,4-triazol-3-yl)phenyl)-4-(3H-imidazo[4,5-b]pyridin-3-yl)picolinamide] |
| 0.018 µM | CN(C)c1ccc(-c2ccnc(C(=O)Nc3cccc(-c4nncn4C4CC4)c3)c2)cn1 [Example 91, N-(3-(4-cyclopropyl-4H-1,2,4-triazol-3-yl)phenyl)-6-(dimethylamino)-3,4′-bipyridine-2′-carboxamide] |
| 0.017 µM | NC(=O)c1cncc(-c2ccnc(C(=O)Nc3cccc(-c4nncn4C4CC4)c3)c2)c1 [Example 64, N2′-(3-(4-cyclopropyl-4H-1,2,4-triazol-3-yl)phenyl)-3,4′-bipyridine-2′,5-dicarboxamide] |
| 0.017 µM | COc1cncc(-c2ccnc(C(=O)Nc3cccc(-c4nncn4C4CC4)c3)c2)c1 [Example 71, N-(3-(4-cyclopropyl-4H-1,2,4-triazol-3-yl)phenyl)-5-methoxy-3,4′-bipyridine-2′-carboxamide] |
| 0.016 µM | O=C(Nc1cccc(-c2nncn2C2CC2)c1)c1cc(-n2cnc3ncccc32)ccn1 [Example 81, N-(3-(4-cyclopropyl-4H-1,2,4-triazol-3-yl)phenyl)-4-(1H-imidazo[4,5-b]pyridin-1-yl)picolinamide] |
| 0.013 µM | O=C(Nc1cccc(-c2nncn2C2CC2)c1)c1cc(-c2cnc3ccccc3c2)ccn1 [Example 84, N-(3-(4-cyclopropyl-4H-1,2,4-triazol-3-yl)phenyl)-4-(quinolin-3-yl)picolinamide] |
| 0.011 µM | O=C(Nc1cccc(-c2nncn2C2CC2)c1)c1cc(-c2cnc3ccccn23)ccn1 [Example 69, N-(3-(4-cyclopropyl-4H-1,2,4-triazol-3-yl)phenyl)-4-(imidazo[1,2-a]pyridin-3-yl)picolinamide] |
| 0.011 µM | Cc1ncc(-c2ccnc(C(=O)Nc3cccc(-c4nncn4C4CC4)c3)c2)n1C [Example 73, N-(3-(4-cyclopropyl-4H-1,2,4-triazol-3-yl)phenyl)-4-(1,2-dimethyl-1H-imidazol-5-yl)picolinamide] |
| 0.01 µM | CC(C)(C)NC(=O)c1cncc(-c2ccnc(C(=O)Nc3cccc(-c4nncn4C4CC4)c3)c2)c1 [Example 75, N5-tert-butyl-N2′-(3-(4-cyclopropyl-4H-1,2,4-triazol-3-yl)phenyl)-3,4′-bipyridirie-2′,5-dicarboxamide] |
| 0.009 µM | O=C(Nc1cccc(-c2nncn2C2CC2)c1)c1cc(-n2cnc3c2CCCC3)ccn1 [Example 86, N-(3-(4-cyclopropyl-4H-1,2,4-triazol-3-yl)phenyl)-4-(4,5,6,7-tetrahydro-1H-benzo[d]imidazol-1-yl)picolinamide] |
| 0.006 µM | CS(=O)(=O)c1ccc(-c2ccnc(C(=O)Nc3cccc(-c4nncn4C4CC4)c3)c2)cc1 [Example 79, N-(3-(4-cyclopropyl-4H-1,2,4-triazol-3-yl)phenyl)-4-(4-(methylsulfonyl)phenyl)picolinamide] |
